Experimental findings from patent publication US20240109891A1, “NOVEL SUBSTITUTED TRICYCLIC AZA-HETEROCYCLES AS SOS1 INHIBITORS” (Viva Star Biosciences (Suzhou) Co., Ltd., priority 2021, published 2024) are described below.

The target of experiment [1] is T1, KRAS-WT and SOS1 proteins (Homo sapiens, UniProt Q07889).
T1 construct: purchased Cisbio 63ADK000CB15PEG
T1 sequence (Q07889 1-1333): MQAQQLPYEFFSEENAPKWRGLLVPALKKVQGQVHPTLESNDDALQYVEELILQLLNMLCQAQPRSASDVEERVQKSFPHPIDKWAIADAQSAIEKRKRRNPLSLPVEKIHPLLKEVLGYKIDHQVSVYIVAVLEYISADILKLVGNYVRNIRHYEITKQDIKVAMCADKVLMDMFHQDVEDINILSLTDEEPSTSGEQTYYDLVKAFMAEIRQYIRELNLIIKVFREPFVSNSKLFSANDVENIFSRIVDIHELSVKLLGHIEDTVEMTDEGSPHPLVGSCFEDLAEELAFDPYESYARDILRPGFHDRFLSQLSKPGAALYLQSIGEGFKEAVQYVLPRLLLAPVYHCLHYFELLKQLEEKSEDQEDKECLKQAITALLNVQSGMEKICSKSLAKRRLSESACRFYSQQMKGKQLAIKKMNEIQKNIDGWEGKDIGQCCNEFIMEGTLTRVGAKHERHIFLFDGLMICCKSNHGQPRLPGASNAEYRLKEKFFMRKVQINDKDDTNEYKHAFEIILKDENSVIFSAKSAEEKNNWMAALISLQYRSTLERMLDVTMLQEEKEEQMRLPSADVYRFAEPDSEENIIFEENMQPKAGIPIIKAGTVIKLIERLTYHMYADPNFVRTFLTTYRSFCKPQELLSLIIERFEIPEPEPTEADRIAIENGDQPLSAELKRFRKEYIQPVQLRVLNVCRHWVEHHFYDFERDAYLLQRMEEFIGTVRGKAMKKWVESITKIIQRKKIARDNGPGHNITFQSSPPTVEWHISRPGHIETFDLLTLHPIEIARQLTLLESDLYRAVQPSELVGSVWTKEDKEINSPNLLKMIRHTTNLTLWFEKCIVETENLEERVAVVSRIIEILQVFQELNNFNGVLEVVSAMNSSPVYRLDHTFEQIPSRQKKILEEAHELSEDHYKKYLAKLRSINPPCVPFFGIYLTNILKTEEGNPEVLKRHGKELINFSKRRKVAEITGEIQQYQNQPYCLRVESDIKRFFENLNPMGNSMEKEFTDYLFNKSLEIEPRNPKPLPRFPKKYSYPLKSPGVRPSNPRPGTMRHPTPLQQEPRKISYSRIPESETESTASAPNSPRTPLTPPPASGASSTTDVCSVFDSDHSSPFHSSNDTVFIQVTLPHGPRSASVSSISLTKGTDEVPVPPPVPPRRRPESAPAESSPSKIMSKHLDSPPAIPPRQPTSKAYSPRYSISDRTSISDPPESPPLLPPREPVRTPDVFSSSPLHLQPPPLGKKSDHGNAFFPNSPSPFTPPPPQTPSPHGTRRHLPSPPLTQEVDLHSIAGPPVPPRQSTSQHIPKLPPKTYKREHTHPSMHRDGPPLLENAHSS
Kind of experiment: KRAS-WT/SOS1 binding assay (HTRF). The following applies: Tag1-SOS1 / Tag2-KRAS-WT, 10 μM GTP, read-out: Activity Data in Kras: SOS1 Assay, Wild Type. (TR-FRET usually uses a lanthanide donor and a delayed reading to cut background.)

The target in experiment [2] is T2, KRAS G12D and SOS1 proteins (Homo sapiens, UniProt Q07889).
T2 construct: purchased Cisbio 63ADK000CB17PEG
T2 sequence (Q07889 1-1333): T1 sequence (Q07889 1-1333)
Kind of experiment: KRAS-G12D/SOS1 binding assay (HTRF). The following applies: Tag1-SOS1 / Tag2-KRAS G12D, 10 μM GTP.

pIC50: −log10 of the molar value.

`Cc1nc(N[C@H](C)c2cccc(C(F)(F)CO)c2)c2cc(-c3ccc(=O)n(C)c3)c3nn(C(F)(F)F)cc3c2n1` [Example 34, 5-(4-{[(1R)-1-[3-(1,1-difluoro-2-hydroxyethyl)phenyl]ethyl]amino}-2-methyl-8-(trifluoromethyl)-8H-pyrazolo[3,4-h]quinazolin-6-yl)-1-methyl-1,2-dihydropyridin-2-one]: the pIC50 in experiment [1] and in experiment [2] was 6.30 to 7.00 in each case.
Take `CC(=O)N1CCC(Oc2cc3c(N[C@H](C)c4cccc5c4CCC5(F)F)nc(C)nc3c3cnn(C)c23)CC1` [Example 40, (R)-1-(4-((4-((1-(1,1-difluoro-2,3-dihydro-1H-inden-4-yl)ethyl)amino)-2,7-dimethyl-7H-pyrazolo[3,4-h]quinazolin-6-yl)oxy)piperidin-1-yl)ethan-1-one]: the pIC50 in experiment [1] and in experiment [2] was over 7.00 each time.
For `Cc1nc(N[C@H](C)c2cccc3c2CCC3(F)F)c2cc(C3CCN(S(C)(=O)=O)CC3)c3nncn3c2n1` [Example 8, (R)-N-(1-(1,1-difluoro-2,3-dihydro-1H-inden-4-yl)ethyl)-2-methyl-6-(1-(methylsulfonyl)piperidin-4-yl)-[1,2,4]triazolo[4′,3′:1,6]pyrido[2,3-d]pyrimidin-4-amine], the pIC50 in experiment [1] and in experiment [2] was over 7.00 each time.
For `C[C@@H](Nc1nc2ccnn2c2cc(=O)n(C3CC(F)(F)C3)cc12)c1cc(F)cc(C(F)(F)CO)c1` [Example 73, (R)-5-((1-(3-(1,1-difluoro-2-hydroxyethyl)-5-fluorophenyl)ethyl)amino)-7-(3,3-difluorocyclobutyl)pyrazolo[1,5-a]pyrido[3,4-e]pyrimidin-8(7H)-one], the pIC50 in experiment [1] and in experiment [2] was over 7.00 each time.
`Cc1nc(N[C@H](C)c2cccc3c2CCC3(F)F)c2cc(O[C@H]3CCOC3)c3c(cnn3C)c2n1` [Example 36, N-((R)-1-(1,1-difluoro-2,3-dihydro-1H-inden-4-yl)ethyl)-2,7-dimethyl-6-(((S)-tetrahydrofuran-3-yl)oxy)-7H-pyrazolo[3,4-h]quinazolin-4-amine]: the pIC50 in experiment [1] and in experiment [2] was over 7.00 in each case.
Regarding `Cc1nc(N[C@H](C)c2cccc(C(F)(F)CO)c2)c2cc(O[C@H]3CCN(C)C3)c3nncn3c2n1` [Example 22, 2,2-difluoro-2-(3-((R)-1-((2-methyl-6-(((S)-1-methylpyrrolidin-3-yl)oxy)-[1,2,4]triazolo[4′,3′:1,6]pyrido[2,3-d]pyrimidin-4-yl)amino)ethyl)phenyl)ethan-1-ol], the pIC50 in experiment [1] and in experiment [2] was over 7.00 each time.
As to `Cc1nc(N[C@H](C)c2cccc(C(F)(F)CO)c2)c2cc(N3CCC(O)C3)c3c(cnn3C)c2n1` (stereo partly drawn) [Example 42, 1-(4-{[(1R)-1-[3-(1,1-difluoro-2-hydroxyethyl)phenyl]ethyl]amino}-2,7-dimethyl-7H-pyrazolo[3,4-h]quinazolin-6-y)pyrrolidin-3-ol], the pIC50 in experiment [1] and in experiment [2] was over 7.00 in each case.
As to `C[C@@H](Nc1nc2c(F)cnn2c2cc(=O)n(C3CC(F)(F)C3)cc12)c1cccc(C(F)(F)CO)c1` [Example 78, (R)-5-((1-(3-(1,1-difluoro-2-hydroxyethyl)phenyl)ethyl)amino)-7-(3,3-difluorocyclobutyl)-3-fluoropyrazolo[1,5-a]pyrido[3,4-e]pyrimidin-8(7H)-one], the pIC50 in experiment [1] and in experiment [2] was over 7.00 throughout.
As to `COCC(=O)N1CCC(c2cc3c(N[C@H](C)c4cccc5c4CCC5(F)F)nc(C)nc3n3cnnc23)CC1` [Example 10, (R)-1-(4-(4-((1-(1,1-difluoro-2,3-dihydro-1H-inden-4-yl)ethyl)amino)-2-methyl-[1,2,4]triazolo[4′,3′:1,6]pyrido[2,3-d]pyrimidin-6-yl)piperidin-1-yl)-2-methoxyethan-1-one], the pIC50 in experiment [1] and in experiment [2] was over 7.00 in each case.
With `C[C@@H](Nc1nc2ccnn2c2cc(=O)n(C3(C)CC3)cc12)c1cccc(C(F)(F)F)n1` [Example 65, (R)-7-(1-methylcyclopropyl)-5-((1-(6-(trifluoromethyl)pyridin-2-yl)ethyl)amino)pyrazolo[1,5-a]pyrido[3,4-e]pyrimidin-8(7H)-one], the pIC50 in experiment [1] and in experiment [2] was 5.30 to 6.30 in each case.
For the molecule `Cc1nc(N[C@H](C)c2cccc3c2CCC3(F)F)c2cc(N3CCOCC3)c3nncn3c2n1` [Example 23, N-[(1R)-1-(1,1-difluoro-2,3-dihydro-1H-inden-4-yl)ethyl]-12-methyl-7-(morpholin-4-yl)-2,4,5,11,13-pentaazatricyclo[7.4.0.0^{2,6}]trideca-1(9),3,5,7,10,12-hexaen-10-amine], the pIC50 in experiment [1] and in experiment [2] was over 7.00 throughout.
Consider `COCC(F)(F)c1cccc([C@@H](C)Nc2nc(C)nc3c2cc(-c2ccc(=O)n(C)c2)c2c3cnn2C)c1` [Example 31, (R)-5-(4-((1-(3-(1,1-difluoro-2-methoxyethyl)phenyl)ethyl)amino)-2,7-dimethyl-7H-pyrazolo[3,4-h]quinazolin-6-yl)-1-methylpyridin-2(1H)-one], for which the pIC50 in experiment [1] and in experiment [2] was over 7.00 in each case.
For `C[C@@H](Nc1nc2ccnn2c2cc(=O)n(C3CCN(S(C)(=O)=O)CC3)cc12)c1cccc(C(F)(F)CO)c1` [Example 67, (R)-5-((1-(3-(1,1-difluoro-2-hydroxyethyl)phenyl)ethyl)amino)-7-(1-(methylsulfonyl)piperidin-4-yl)pyrazolo[1,5-a]pyrido[3,4-e]pyrimidin-8(7H)-one], the pIC50 in experiment [1] was over 7.00; in experiment [2], 6.30 to 7.00.
As to `CC(=O)N1CC[C@H](Oc2cc3c(N[C@H](C)c4cccc5c4CCC5(F)F)nc(C)nc3n3cnnc23)C1` [Example 21, 1-((S)-3-((4-(((R)-1-(1,1-difluoro-2,3-dihydro-1H-inden-4-yl)ethyl)amino)-2-methyl-[1,2,4]triazolo[4′,3′:1,6]pyrido[2,3-d]pyrimidin-6-yl)oxy)pyrrolidin-1-yl)ethan-1-one], the pIC50 in experiment [1] and in experiment [2] was over 7.00 each time.
As to `CC(=O)N1CCC(n2cc3c(N[C@H](C)c4cccc(C(F)(F)CO)c4)nc4ccnn4c3cc2=O)CC1` [Example 75, 11-(1-acetylpiperidin-4-yl)-8-{[(1R)-1-[3-(1,1-difluoro-2-hydroxyethyl)phenyl]ethyl]amino}-2,3,7,11-tetraazatricyclo[7.4.0.0^{2,6}]trideca-1(13),3,5,7,9-pentaen-12-one], the pIC50 in experiment [1] and in experiment [2] was over 7.00 in each case.
For `C[C@@H](Nc1nc(C(F)(F)F)nc2c1cc(-c1ccc(=O)n(C)c1)c1c2cnn1C)c1cccc(C(F)(F)CO)c1` [Example 32, (R)-5-(4-((1-(3-(1,1-difluoro-2-hydroxyethyl)phenyl)ethyl)amino)-7-methyl-2-(trifluoromethyl)-7H-pyrazolo[3,4-h]quinazolin-6-yl)-1-methylpyridin-2(1H)-one], the pIC50 in experiment [1] and in experiment [2] was 6.30 to 7.00 in each case.
Consider `CC(=O)N1CCC(c2cc3c(N[C@H](C)c4cccc(C(F)(F)CO)c4)nc(C)nc3n3cnnc23)CC1` [Example 12, (R)-1-(4-(4-((1-(3-(1,1-difluoro-2-hydroxyethyl)phenyl)ethyl)amino)-2-methyl-[1,2,4]triazolo[4′,3′:1,6]pyrido[2,3-d]pyrimidin-6-yl)piperidin-1-yl)ethan-1-one], for which the pIC50 in experiment [1] and in experiment [2] was over 7.00 throughout.
Consider `Cc1nc(N[C@H](C)c2cccc(C(F)(F)CO)c2)c2cc(-c3ccc(=O)[nH]c3)c3c(cnn3C)c2n1` [Example 29, (R)-5-(4-((1-(3-(1,1-difluoro-2-hydroxyethyl)phenyl)ethyl)amino)-2,7-dimethyl-7H-pyrazolo[3,4-h]quinazolin-6-yl)pyridin-2(1H)-one], for which the pIC50 in experiment [1] and in experiment [2] was over 7.00 each time.
